Data published in US10441607B1, “Multifunctional linker technology containing an N4 group” (priority 2016, dated 2019).

Tests used:
[1] = system: SSTR2-expressing IMR-32 cells; assay: Cellular uptake / receptor-mediated binding and octreotide blocking in IMR-32 cells; type: cell-based
Experimental: The cellular uptake of compound 7 was compared to another dual-labeled TOC agent, ^64Cu-DA(NIR)-TOC, which was synthesized by sequential N-terminal functionalization of resin-bound TOC with an azide-containing amino acid and DOTA-NHS, in IMR-32 neuroblastoma cells. Agents (30 nM, 1-2 μCi) were added to vials containing 4 million cells and incubated at 4° C. for 1 hr. […] After washing twice with PBS, the cells were collected and bound radioactivity was measured by a γ counter.

AR42J tumor = assay: PET/CT imaging of AR42J tumor-bearing mice; type: in vivo
Text: PET/CT images (FIG. 6) were taken of AR42J tumor-bearing mice administered ^68Ga-DOTA-TOC (left) and ^68Ga-MMC(5-FU)-TOC (right).

[2] = Biodistribution in AR42J xenografts; type: in vivo, mice; conditions: mouse, all tissues other than tumor and kidneys, read-out: uptake in all locations other than tumor and kidneys
AR42J xenografts = assay: Biodistribution in AR42J xenografts; type: in vivo, mice

C[C@@H](O)[C@@H]1NC(=O)[C@H](CCCCN)NC(=O)[C@@H](Cc2c[nH]c3ccccc23)NC(=O)[C@H](Cc2ccc(O)cc2)NC(=O)[C@@H](NC(=O)[C@@H](Cc2ccccc2)NC(=O)CN2CCN(CC(=O)O)CCN(C(=O)Cn3cc(F)c(=O)[nH]c3=O)CCN(CC(=O)O)CC2)CSSC[C@@H](C(=O)N[C@H](CO)[C@@H](C)O)NC1=O [^68Ga-MMC(5-FU)-TOC, metal not drawn]
binding to IMR-32 cells [1]: good binding | reduction in binding on blocking with octreotide ([1]; 10-fold excess of octreotide): 81.2% | reduction in binding on blocking with octreotide ([1]; 200-fold excess of octreotide): 94.9% | localization in PET/CT images (AR42J tumor): primarily in the tumor, the kidneys, and the bladder | tissue uptake [2]: < 5 %ID/g | location of the majority of the injected dose (AR42J xenografts): either the tumor or kidneys
